Source: patent publication US20070048325A1, “Combination therapies for inhibiting integrin-extracellular matrix interactions” (priority 2005, published 2007)
Where no end group is shown, it is not given here.

B1: mAb HUIV26: monoclonal antibody to denatured collagen; Hybridoma HUIV26 (PTA-6563); SEQ ID NO: 15 and 22 (antibody, listed as Mus musculus, V domains shown)
VH: EVKLLESGGGLVQPGGSLKLSCAASGFDFSRYWMSWVRQAPGKGLEWIGEINPDSSTINYTPSLKDKFIISRDNAKNTLYLQMSKVRSEDTALYYCARPVDGYYDAMDYWGQGTSVTVSS
VL: DIVMTQSPSLLSVSAGEKVTMSCKSSQSLLNSGNQKNYLAWYQQKPGQPPKLLIYGASTRESGVPDRFTGSGSGTDFTLIISSVQAEDLAVYYCQNDHSVPYTFGGGTKLEI

How the values were obtained:
[1] = biological target: integrin αvβ3 on M21 human melanoma cells (human (on human melanoma M21 cells)) (UniProt P06756); test: cell-based or functional assay
M21 cells = test: M21 cell adhesion to native collagen type-IV; format: cell-based, human; conditions: CLK-peptide 100 μg/ml; mAb HUIV26 100 μg/ml; data not shown
Experimental: FIG. 25 Effect of mAb HUIV26 in Combination with CLK-Peptide on Adhesion of M21 Cells to Denatured Collagen Type IV. Microtiter wells were coated with either native or denatured collagen type-IV. M21 cells were allowed to bind to the coated substrates in the presence of CLK-peptide, mAb HUIV26, or both.
The effects of CLK-peptide, mAb HUIV26, and the combination of both on tumor cell adhesion were examined in vitro. Non-tissue culture treated 48-well microtiter plates were coated overnight at 4° C. with either native or denatured collagen type-IV (5 μg/ml). The plates were then blocked with 1% BSA in PBS for 1 hour at 37° C. Human melanoma (M21) cells at 10^5 cells/well in adhesion buffer were allowed to attach to the coated wells in the presence of either CLK-peptide (100 μg/ml), or mAb HUIV26 (100 μg/ml, […]), or both together (CLK-peptide 25 μg/ml, mAb HUIV26 100 μg/ml). The cells were washed 2× with PBS, stained with crystal violet and destained with 10% acetic acid. Cell adhesion was quantified by measuring the O.D. of eluted dye at 600 nm. Data bars represent the mean O.D.±standard deviation from triplicate wells.

[2] = test system: denatured collagen type-IV; test: Competition ELISA of CLK-peptide and mAb HUIV26; format: binding
Experimental: FIG. 26 Binding of CLK-Peptide and Mab HUIV26 to Denatured Collagen Type IV. To examine the epitope bound by CLK and HUIV26, competition ELISAs were carried out. Microtiter wells were coated with denatured collagen type-IV (10 μg/ml), and mAb HUIV26 was allowed to bind the denatured collagen in the presence or absence of CLK-peptide.
To characterize the epitope bound by CLK and HUIV26, competition ELISAs were carried out. Microtiter wells were coated with denatured collagen type-IV (1 μg/ml) overnight at 4° C., and the plates were blocked with 1% BSA for 1 hour at 37° C. Monoclonal Ab HUIV26 was added at 1 μg/ml and allowed to bind the denatured collagen in the presence or absence of 100 μg/ml of CLK-peptide for 2 hours at 37° C. Goat-anti-mouse antibody was added at 1:3000 and incubation was allowed for 1 hour at 37° C. A color solution, then a stopping solution of 4N sulfuric acid, were added and binding was quantified by measuring the O.D. 490 nm. […] Similar results were obtained over a wide range of peptide and antibody concentrations (1 to 100 μg/ml; data not shown).

[3] = test system: denatured collagen type-IV; test: ^99Tc-labeled CLK-peptide binding, gamma counter; conditions: for inhibition of ^99Tc-CLK-peptide binding to denatured collagen type-IV: collagen coated at 10 μg/ml
Experimental: FIG. 28 Inhibition of Binding of ^99Tc-Labeled CLK-Peptide to Denatured Collagen Type-IV by mAb HUI77. Denatured collagen type-IV (10 μg/ml) was coated on microtiter wells and binding of ^99Tc-labeled CLK-peptide in the presence or absence of unlabeled CLK-peptide or mAb HUI77 was measured. […] These findings provide further evidence that the CLK-peptide binds to a similar, if not identical, epitope recognized by the mAb HUI77.
In addition, denatured collagen type-IV (10 μg/ml) was coated on microtiter wells and binding of ^99Tc-labeled CLK-Peptide in the presence or absence of unlabeled CLK-peptide or mAb HUI77 was measured using a gamma counter. […] These findings provide further evidence that the CLK-peptide binds to a similar if not identical epitope recognized by Mab HUI77.

[4] = test system: denatured collagen type-IV; conditions: substantially greater defined as at least 1.5-fold; cited from earlier work
[5] = test system: denatured collagen type-IV; test: Solid phase ELISA of HRP-labeled CLK-peptide binding; conditions: collagen coated at 10 μg/ml; ELISA 490 nm
Experimental: FIG. 27 Inhibition of Binding of Labeled CLK-Peptide to Denatured Collagen Type-IV by mAb HUI77. To examine the binding specificity of the synthetic CLK-peptide, the peptide was labeled and solid phase ELISAs were performed.
To examine the binding specificity of CLK-Peptide, the peptide was labeled and solid phase ELISAs were performed. Denatured collagen type-IV (10 μg/ml) was coated on microtiter wells and binding of either HRP-labeled CLK-Peptide or mAbs (mAbs HU177 or HUIV26) was measured by ELISA at a wavelength of 490 nm.

denatured collagen = conditions: cited from earlier work

Sequence of UniProt P06756 (P06756 31-1048, chain 1 of 2): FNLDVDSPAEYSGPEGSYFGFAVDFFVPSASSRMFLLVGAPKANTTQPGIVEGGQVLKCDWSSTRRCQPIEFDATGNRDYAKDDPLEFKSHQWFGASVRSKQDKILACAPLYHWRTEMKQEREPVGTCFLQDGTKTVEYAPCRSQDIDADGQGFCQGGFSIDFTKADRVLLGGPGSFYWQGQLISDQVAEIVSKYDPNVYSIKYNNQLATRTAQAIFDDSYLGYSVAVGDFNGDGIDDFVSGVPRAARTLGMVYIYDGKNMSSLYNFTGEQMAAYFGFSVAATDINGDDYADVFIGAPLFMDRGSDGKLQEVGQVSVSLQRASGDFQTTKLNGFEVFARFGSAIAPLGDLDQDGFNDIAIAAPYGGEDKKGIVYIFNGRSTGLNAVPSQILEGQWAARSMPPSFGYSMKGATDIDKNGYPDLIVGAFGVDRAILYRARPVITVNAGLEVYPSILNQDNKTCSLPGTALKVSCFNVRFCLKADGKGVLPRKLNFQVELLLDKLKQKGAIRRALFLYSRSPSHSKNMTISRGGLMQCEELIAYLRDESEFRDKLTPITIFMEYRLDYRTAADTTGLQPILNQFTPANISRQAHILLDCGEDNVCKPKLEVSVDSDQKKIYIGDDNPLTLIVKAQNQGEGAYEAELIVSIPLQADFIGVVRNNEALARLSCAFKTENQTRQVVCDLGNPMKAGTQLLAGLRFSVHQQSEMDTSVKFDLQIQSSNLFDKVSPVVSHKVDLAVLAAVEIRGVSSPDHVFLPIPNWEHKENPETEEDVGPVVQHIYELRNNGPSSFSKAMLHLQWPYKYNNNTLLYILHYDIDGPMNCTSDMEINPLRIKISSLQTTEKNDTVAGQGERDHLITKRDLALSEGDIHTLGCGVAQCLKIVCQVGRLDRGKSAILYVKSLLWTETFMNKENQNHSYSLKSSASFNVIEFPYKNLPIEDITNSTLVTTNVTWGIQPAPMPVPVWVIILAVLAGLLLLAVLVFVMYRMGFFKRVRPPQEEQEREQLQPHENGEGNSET
Sequence of UniProt P06756 (P05106 27-788, chain 2 of 2, further chain): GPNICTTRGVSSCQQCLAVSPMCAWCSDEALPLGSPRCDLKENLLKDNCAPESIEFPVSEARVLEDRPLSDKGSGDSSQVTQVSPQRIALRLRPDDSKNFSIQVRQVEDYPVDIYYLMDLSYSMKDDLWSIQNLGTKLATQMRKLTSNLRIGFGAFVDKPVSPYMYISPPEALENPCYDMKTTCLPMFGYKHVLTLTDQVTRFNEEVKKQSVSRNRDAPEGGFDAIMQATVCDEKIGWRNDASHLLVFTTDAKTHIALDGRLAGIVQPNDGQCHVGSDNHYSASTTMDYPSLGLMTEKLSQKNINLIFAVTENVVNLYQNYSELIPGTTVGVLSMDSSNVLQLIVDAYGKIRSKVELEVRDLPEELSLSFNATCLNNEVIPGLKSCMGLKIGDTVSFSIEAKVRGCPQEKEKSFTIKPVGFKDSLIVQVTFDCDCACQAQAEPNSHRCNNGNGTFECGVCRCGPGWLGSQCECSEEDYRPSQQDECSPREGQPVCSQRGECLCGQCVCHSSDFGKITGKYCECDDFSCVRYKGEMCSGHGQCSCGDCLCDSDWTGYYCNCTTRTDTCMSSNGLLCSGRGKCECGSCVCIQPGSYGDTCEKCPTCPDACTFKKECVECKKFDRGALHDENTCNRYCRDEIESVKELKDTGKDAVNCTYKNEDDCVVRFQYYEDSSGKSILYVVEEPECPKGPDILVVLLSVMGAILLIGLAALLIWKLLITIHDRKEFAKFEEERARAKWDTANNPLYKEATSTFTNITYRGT

| Molecule | effect on M21 cell adhesion to native collagen type-IV (M21 cells) | inhibition of ^99Tc-CLK-peptide binding to denatured collagen type-IV [3] | binding affinity to denatured collagen type-IV compared to native collagen type-IV [4] | inhibition of HRP-labeled CLK-peptide binding to denatured collagen type-IV [5] | affinity to the native form of the collagen compared to denatured collagen (denatured collagen) | further results |
| --- | --- | --- | --- | --- | --- | --- |
| Mab LM609 (antibody) | – | – | – | – | – | relative level of IGFBP-4 RNA (real time PCR) in M21 cells on denatured collagen type-IV [1]: 8 fold; relative level of TSP-1 (real time PCR) in M21 cells on plates coated with anti-integrin Mabs [1]: > 50%; relative level of TSP-1 RNA (real time PCR) in M21 cells on denatured collagen type-IV [1]: 8 fold |
| NH2-C-L-K-Q-N-G-G-N—F—S-L-G-COOH (H-CLKQNGGNFSLG-OH) [CLK-peptide] | neither had any effect | dose dependent inhibition | substantially greater | – | – | blocking of mAb HUIV26 binding to denatured collagen type-IV ([2]; HUIV26 1 μg/ml, CLK-peptide 100 μg/ml): did not block |
| NH2-S-L-K-Q-N-G-G-N—F—S-L-C—COOH (H-SLKQNGGNFSLC-OH) [SLK-peptide] | – | – | substantially greater | – | – | – |
| ^99Tc-CLK-peptide: CLK-peptide labeled with 99Tc (CLKQNGGNFSLG; also: labeled with 99Tc) | – | – | – | – | – | binding of ^99Tc-CLK-peptide to denatured collagen type-IV ([3]; 10 μg/ml, 50 μl/well): specifically binds |
| mAb HUI77: mouse monoclonal antibody to denatured collagen; hybridoma PTA-6551; SEQ ID NO: 1 and 8 | – | inhibited | – | specifically inhibited | substantially reduced affinity | – |
| B1 | neither had any effect | – | – | not | substantially reduced affinity | binding to denatured collagen type-IV ([2]; ELISA, HUIV26 1 μg/ml): readily bound; blocking of CLK-peptide binding to denatured collagen type-IV ([2]; FIG. 26B): did not block |
